In article PMC9037111, “Structure-based design, synthesis, and biological evaluation of novel piperine–resveratrol hybrids as antiproliferative agents targeting SIRT-2” (RSC Advances, 2021):
Read-outs that look alike come from different tables or passages of the source.

What was measured:
ACHN = assay: cells; design: species or system NCI-60 human tumour cell lines; NCI-60 one-dose screen at 10 uM, percent growth inhibition versus untreated control cells; settings: Homo sapiens, ACHN, growth inhibition, one dose
Procedure: (§1) The antiproliferative activity of the target compounds 5a–h was screened against a panel of 60 cancer cell lines according to NCI-guidelines at concentration of 10 μM. The results for each compound (Table 1) were recorded as the percent of growth inhibition of treated cells compared to untreated control cells. […] In addition, 5b recorded significant activity against leukemia cancer cell lines K-562 and MOLT-4, Non-small cell lung cancer cell lines NCI-H322M and NCI-H460, Colon cancer cell lines COLO 205, HCT-15 and HCT-116, CNS cancer cell lines SF-295 and SF-539, Melanoma cancer cell lines LOX IMVI and UACC-62, Ovarian cancer cell lines NCI/ADR-RES, OVCAR-3, and OVCAR-4, Renal cancer cell lines CAKI-1, ACHN, and UO-31, and Breast cancer MCF7 cell line with growth inhibition percentage between 80 to 95. […] The methodology of the NCI anticancer screening has been described in detail elsewhere (https://dtp.cancer.gov/).[52]

DU-145 = assay: cells; design: species or system NCI-60 human tumour cell lines; NCI-60 one-dose screen at 10 uM, percent growth inhibition versus untreated control cells; settings: Homo sapiens, DU-145, growth inhibition, one dose
Procedure: as §1

HCT-116 = assay: cells; design: species or system NCI-60 human tumour cell lines; NCI-60 one-dose screen at 10 uM, percent growth inhibition versus untreated control cells; settings: Homo sapiens, HCT-116, growth inhibition, one dose
Procedure: as §1

MDA-MB-231/ATCC = assay: cells; design: species or system NCI-60 human tumour cell lines; NCI-60 one-dose screen at 10 uM, percent growth inhibition versus untreated control cells; settings: Homo sapiens, MDA-MB-231, growth inhibition, one dose
Procedure: as §1

NCI-H226 = assay: cells; design: species or system NCI-60 human tumour cell lines; NCI-60 one-dose screen at 10 uM, percent growth inhibition versus untreated control cells; settings: Homo sapiens, NCI-H226, growth inhibition, one dose
Procedure: as §1

OVCAR-5 = assay: cells; design: species or system NCI-60 human tumour cell lines; NCI-60 one-dose screen at 10 uM, percent growth inhibition versus untreated control cells; settings: Homo sapiens, OVCAR-5, growth inhibition, one dose
Procedure: as §1

SR = assay: cells; design: species or system NCI-60 human tumour cell lines; NCI-60 one-dose screen at 10 uM, percent growth inhibition versus untreated control cells; settings: Homo sapiens, SR, growth inhibition, one dose
Procedure: as §1

SW-620 = assay: cells; design: species or system NCI-60 human tumour cell lines; NCI-60 one-dose screen at 10 uM, percent growth inhibition versus untreated control cells; settings: Homo sapiens, SW-620, growth inhibition, one dose
Procedure: as §1

SIRT1 = molecular target: T1, SIRT1 (Homo sapiens, UniProt Q96EB6); assay: biochemical; design: Sirtuin-TK assay, percent inhibition of human SIRT1 or SIRT2 at 5 and 50 uM
T1 sequence (Q96EB6 2-747): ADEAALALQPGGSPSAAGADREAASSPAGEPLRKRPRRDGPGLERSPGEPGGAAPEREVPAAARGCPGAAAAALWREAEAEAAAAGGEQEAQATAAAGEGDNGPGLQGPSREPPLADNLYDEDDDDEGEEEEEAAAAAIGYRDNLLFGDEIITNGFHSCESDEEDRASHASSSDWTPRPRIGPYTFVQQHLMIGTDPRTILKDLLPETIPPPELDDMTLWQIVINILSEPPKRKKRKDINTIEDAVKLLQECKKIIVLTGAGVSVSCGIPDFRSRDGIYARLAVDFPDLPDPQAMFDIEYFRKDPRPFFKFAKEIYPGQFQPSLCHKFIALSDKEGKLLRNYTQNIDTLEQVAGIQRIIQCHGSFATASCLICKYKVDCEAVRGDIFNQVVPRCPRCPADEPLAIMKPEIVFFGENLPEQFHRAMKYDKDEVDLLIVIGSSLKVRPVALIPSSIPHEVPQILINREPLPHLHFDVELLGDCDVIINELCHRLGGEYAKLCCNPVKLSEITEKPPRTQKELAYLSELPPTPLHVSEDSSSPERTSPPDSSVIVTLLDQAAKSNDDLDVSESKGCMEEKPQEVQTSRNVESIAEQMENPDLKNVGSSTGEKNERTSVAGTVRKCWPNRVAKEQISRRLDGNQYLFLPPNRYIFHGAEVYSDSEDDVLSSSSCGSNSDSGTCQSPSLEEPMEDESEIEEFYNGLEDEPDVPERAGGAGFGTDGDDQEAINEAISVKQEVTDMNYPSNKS
Procedure: (§2) Sirtuin-TK assay was performed to estimate the Sirtuins inhibitory potential of 5a–h (Tables 2 and 3). The results of this test strongly complemented the findings of cancer cell-based assessments. […] Of the 8 compounds evaluated, 3 analogs (5b, 5e and 5h) were more likely to inhibit Sirt2 (>70% inhibition) than Sirt1 (<50% inhibition) at 50 μM. The other compounds were poor inhibitors of both enzymes. […] 4.2.2. Sirtuin inhibitory assay

SIRT2 = molecular target: T2, SIRT2 (Homo sapiens, UniProt Q8IXJ6); assay: biochemical; design: Sirtuin-TK assay, percent inhibition of human SIRT1 or SIRT2 at 5 and 50 uM
T2 sequence (Q8IXJ6 2-389): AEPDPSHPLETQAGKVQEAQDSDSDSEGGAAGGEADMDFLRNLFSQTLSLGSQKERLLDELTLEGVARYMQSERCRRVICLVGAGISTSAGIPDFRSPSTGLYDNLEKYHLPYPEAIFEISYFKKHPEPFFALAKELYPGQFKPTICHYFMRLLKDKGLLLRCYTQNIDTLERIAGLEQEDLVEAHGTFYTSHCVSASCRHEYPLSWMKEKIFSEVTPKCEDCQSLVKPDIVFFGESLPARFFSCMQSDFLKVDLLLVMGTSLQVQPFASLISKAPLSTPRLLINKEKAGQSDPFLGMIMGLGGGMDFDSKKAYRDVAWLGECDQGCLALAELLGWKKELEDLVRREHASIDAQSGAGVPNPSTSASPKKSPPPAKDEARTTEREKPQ
Procedure: as §2

[1] = read-out: Growth% inhibition / 5b
[2] = read-out: Growth% inhibition / 5h
[3] = read-out: Growth% inhibition / 5e
[4] = read-out: Growth% inhibition / 5a

O=C(/C=C/C=C/c1ccc2c(c1)OCO2)N/N=C/c1ccc(O)cc1O [5b, (2E,4E)-5-(Benzo[d][1,3]dioxol-5-yl)-N′-((E)-2,4-dihydroxybenzylidene)penta-2,4-dienehydrazide] gave an inhibition at 10 µM (ACHN; [1]) of 85.6%, an inhibition at 10 µM (DU-145; [1]) of 50% and an inhibition at 10 µM (HCT-116; [1]) of 91.3%. The inhibition at 10 µM (MDA-MB-231/ATCC; [1]) was 65.6%, the inhibition at 10 µM (NCI-H226; [1]) was 62.4% and the inhibition at 10 µM (OVCAR-5; [1]) was 57.5%. For the same compound, the inhibition at 10 µM (SR; [1]) was 78.7%, the inhibition at 10 µM (SW-620; [1]) was 73.5% and the inhibition at 5 µM (SIRT1) was 18 ± 3%. The inhibition at 5 µM (SIRT2) was 26 ± 3% and the inhibition at 50 µM (SIRT2) was 78 ± 3%.

CN(C)c1ccc(C=NNC(=O)/C=C/C=C/c2ccc3c(c2)OCO3)cc1 (mixture of isomers) [5d, (2E,4E)-5-(Benzo[d][1,3]dioxol-5-yl)-N′-((E/Z)-4-(dimethylamino)-benzylidene)penta-2,4-dienehydrazide] was tested, and the inhibition at 10 µM (SR; read-out: Growth% inhibition / 5d) was 62%, the inhibition at 5 µM (SIRT1) was 11 ± 2% and the inhibition at 5 µM (SIRT2) was 18 ± 2%.

Work on C/C(=N\NC(=O)/C=C/C=C/c1ccc2c(c1)OCO2)c1ccc(Br)cc1 [5h, (2E,4E)-5-(Benzo[d][1,3]dioxol-5-yl)-N′-((E)-1-(4-bromophenyl)ethylidene)penta-2,4-dienehydrazide] yielded an inhibition at 10 µM (ACHN; [2]) of 24.1%, an inhibition at 10 µM (DU-145; [2]) of 44% and an inhibition at 10 µM (HCT-116; [2]) of 12.3%. For the same compound, the inhibition at 10 µM (MDA-MB-231/ATCC; [2]) was 21%, the inhibition at 10 µM (NCI-H226; [2]) was 24.1% and the inhibition at 10 µM (OVCAR-5; [2]) was 10.7%. The inhibition at 10 µM (SR; [2]) was 93.3%, the inhibition at 10 µM (SW-620; [2]) was 25.4% and the inhibition at 5 µM (SIRT1) was 16 ± 5%. It also gave an inhibition at 50 µM (SIRT1) of 44 ± 3%, an inhibition at 5 µM (SIRT2) of 22 ± 5% and an inhibition at 50 µM (SIRT2) of 75 ± 3%.

Compound CCN(CC)c1ccc(/C=N/NC(=O)/C=C/C=C/c2ccc3c(c2)OCO3)c(O)c1 [5e, (2E,4E)-5-(Benzo[d][1,3]dioxol-5-yl)-N′-((E)-4-(diethylamino)-2-hydroxybenzylidene)penta-2,4-dienehydrazide] has an inhibition at 10 µM (ACHN; [3]) of 74.4%, an inhibition at 10 µM (DU-145; [3]) of 46.8% and an inhibition at 10 µM (HCT-116; [3]) of 92.1%. It also gave an inhibition at 10 µM (MDA-MB-231/ATCC; [3]) of 56.8%, an inhibition at 10 µM (NCI-H226; [3]) of 50.5% and an inhibition at 10 µM (OVCAR-5; [3]) of 39.1%. For the same compound, the inhibition at 10 µM (SR; [3]) was 82.4%, the inhibition at 10 µM (SW-620; [3]) was 67.7% and the inhibition at 5 µM (SIRT1) was 20 ± 5%. It also gave an inhibition at 50 µM (SIRT1) of 44 ± 2%, an inhibition at 5 µM (SIRT2) of 24 ± 3% and an inhibition at 50 µM (SIRT2) of 74 ± 2%.

For O=C(/C=C/C=C/c1ccc2c(c1)OCO2)NN=Cc1ccc(O)cc1 [5a, (2E,4E)-5-(Benzo[d][1,3]dioxol-5-yl)-N′-((E,Z)-4-hydroxybenzylidene)penta-2,4-dienehydrazide], the inhibition at 10 µM (MDA-MB-231/ATCC; [4]) was 17.2%, the inhibition at 10 µM (SR; [4]) was 64% and the inhibition at 10 µM (SW-620; [4]) was 19.8%. It also gave an inhibition at 5 µM (SIRT1) of 13 ± 3%, an inhibition at 50 µM (SIRT1) of 42 ± 3% and an inhibition at 5 µM (SIRT2) of 19 ± 3%.
